Key:
[1] = molecular target: T1, TGFBR1 (Homo sapiens, UniProt P36897); test: Kinase activity assay (HTRF or ADP-Glo); type: biochemical
T1 sequence (P36897 34-503): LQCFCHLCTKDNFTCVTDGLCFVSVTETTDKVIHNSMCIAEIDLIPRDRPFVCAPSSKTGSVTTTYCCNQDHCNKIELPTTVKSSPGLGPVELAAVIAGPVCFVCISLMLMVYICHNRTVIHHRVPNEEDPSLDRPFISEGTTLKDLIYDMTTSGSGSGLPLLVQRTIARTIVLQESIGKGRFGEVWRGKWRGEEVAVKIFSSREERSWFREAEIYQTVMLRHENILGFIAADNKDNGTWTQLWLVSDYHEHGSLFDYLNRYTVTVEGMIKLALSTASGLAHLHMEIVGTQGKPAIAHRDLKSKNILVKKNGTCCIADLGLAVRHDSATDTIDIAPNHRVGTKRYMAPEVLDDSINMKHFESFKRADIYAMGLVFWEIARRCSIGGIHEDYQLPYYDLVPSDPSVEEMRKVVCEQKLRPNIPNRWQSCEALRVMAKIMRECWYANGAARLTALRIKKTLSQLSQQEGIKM
Protocol: (§1) A total of 330 kinase candidates (15-50 nM, 2.5 µL) were mixed with compound II-1 (2.5 mM, 25 nL, prepared in DMSO) and incubated at 25 °C for 10 minutes. Then, a mixture of kinase peptide substrate (0.2 mg/mL; supplier: GenScript) and ATP (10-60 µM; supplier: Promega; product number: V915B) was added (total 2.5 µL, prepared in assay buffer), and the reaction was carried out at 25 °C for 60-120 minutes. Finally, the reaction products were quantified using HTRF1 or ADP-Glo2 methods. During the kinase activity assay, the consumption of each substrate was kept below 10%, and each kinase assay was performed in duplicate.

[2] = molecular target: T2, BMPR2 (Homo sapiens, UniProt Q13873); test: Kinase activity assay (HTRF or ADP-Glo); type: biochemical
T2 sequence (Q13873 27-1038): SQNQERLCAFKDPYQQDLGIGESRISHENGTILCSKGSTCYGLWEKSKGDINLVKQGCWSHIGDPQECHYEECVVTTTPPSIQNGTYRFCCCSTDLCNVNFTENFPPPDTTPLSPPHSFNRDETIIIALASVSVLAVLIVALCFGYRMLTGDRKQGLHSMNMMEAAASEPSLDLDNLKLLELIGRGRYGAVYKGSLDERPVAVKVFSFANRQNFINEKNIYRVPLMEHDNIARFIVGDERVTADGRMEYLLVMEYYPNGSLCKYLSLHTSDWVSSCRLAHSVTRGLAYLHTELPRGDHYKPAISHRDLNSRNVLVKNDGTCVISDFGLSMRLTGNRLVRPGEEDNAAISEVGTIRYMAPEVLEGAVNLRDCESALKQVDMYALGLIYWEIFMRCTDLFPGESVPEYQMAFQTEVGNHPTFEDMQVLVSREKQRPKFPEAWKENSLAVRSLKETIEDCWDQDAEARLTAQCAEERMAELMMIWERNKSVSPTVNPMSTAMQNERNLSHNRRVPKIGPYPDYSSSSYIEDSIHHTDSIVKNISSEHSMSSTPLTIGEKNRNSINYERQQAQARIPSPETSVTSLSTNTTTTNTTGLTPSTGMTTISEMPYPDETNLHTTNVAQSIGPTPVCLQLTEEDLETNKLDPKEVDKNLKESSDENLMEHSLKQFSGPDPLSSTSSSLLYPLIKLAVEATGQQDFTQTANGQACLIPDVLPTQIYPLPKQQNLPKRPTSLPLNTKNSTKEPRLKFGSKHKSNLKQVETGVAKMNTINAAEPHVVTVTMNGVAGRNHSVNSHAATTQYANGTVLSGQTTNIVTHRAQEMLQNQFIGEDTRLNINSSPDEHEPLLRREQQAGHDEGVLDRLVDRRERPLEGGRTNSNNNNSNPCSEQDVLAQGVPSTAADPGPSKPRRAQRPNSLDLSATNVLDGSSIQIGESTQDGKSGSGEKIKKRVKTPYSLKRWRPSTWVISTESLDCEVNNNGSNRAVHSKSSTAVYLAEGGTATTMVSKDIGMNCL
Protocol: as §1

[3] = test system: pluripotent stem cell H9; test: Neural induction of H9 cells, marker gene mRNA by RNA-seq; type: cell-based, human; conditions: H9, increasing concentrations, day 7 and day 14, P < 0.05 t-test
Protocol: (§2) The induction medium comprises Dulbecco's Modified Eagle Medium (DMEM), Minimum Essential Medium Non-Essential Amino Acids (MEM NEAA, Cat. No. 11140076, Thermo Fisher), 4-Hydroxy-TEMPO (50 µM), D(+)-galactose (12.5 µg/mL), vitamin E (1 µg/mL), vitamin B12 (1.2 µM), vitamin C (64 mg/L), progesterone (6.3 ng/mL), 1,4-butanediamine (23 µg/mL), luteolin (60 µM), sodium chloride (0.5 g/L), […] (13.6 µg/L), insulin (22 µg/mL), recombinant human transferrin (100 ng/mL), and the BMPR1B inhibitor of the present invention (induction medium A uses BMPR1B inhibitor II-1; induction medium B uses BMPR1B inhibitor II-13).
(§3) Commercial human pluripotent stem cell lines H1, H9, and induced pluripotent stem cells (iPSCs) were used. The iPSCs were prepared according to the "reprogramming medium for the culture of reprogrammed iPSCs" using CD34+ cells (CN109628383A, Example 2). T25 culture flasks were coated with Matrigel (STEMCELL Technologies) and incubated at 37°C for at least one hour. Cells were seeded at 1 × 10^6 per T25 flask for expansion and passaging.
(§4) 6-well plates were coated with 50 µg/mL poly-L-lysine (SIGMA, Cat. No. P6407) and incubated at 37°C for at least 3 hours, followed by coating with 5 µg/mL laminin (SIGMA ALDRICH, Cat. No. 12020) and further incubation at 37°C for at least 3 hours. […]

[4] = test system: SMAD2/3; test: Western blot of TGF signaling pathway in H1 cells; type: cell-based, human; conditions: 6 µL of 30 µM compound in 2 mL, within 24 hours of treatment, Figure 3
Protocol: (§5) The inhibitory effect of the pyrazolecarbonyl piperazinone compounds on the BMP signaling pathway was further validated by Western blot analysis. Commercial human pluripotent stem cell line H1 was seeded in a 6-well plate at 1.5 × 10^6 cells per well in 2 mL of culture medium. After one day of culture, the medium was replaced, and 6 µL of 30 µM pyrazolecarbonyl piperazinone compound II-1 was added. Cells were treated for 12, 24, and 36 hours, after which the cells were harvested and protein samples were prepared according to the instructions of a commercial kit (Beyotime Biotechnology; Cat. No. P0013). Western blot analysis was performed as described in the literature (H. Zhang et al., 2022; N. Zhang et al., 2021). […] Table 2. Antibody Information

[5] = test system: SMAD1/5/8; test: Western blot of BMP signaling pathway in H1 cells; type: cell-based, human; conditions: 6 µL of 30 µM compound in 2 mL, within 24 hours of treatment, Figure 3
Protocol: as §5

[6] = molecular target: BMPR1B kinase (Homo sapiens, UniProt O00238); test: Kinase activity screening (330 kinases, HTRF or ADP-Glo); type: biochemical; conditions: compound 2.5 mM, 25 nL in DMSO added to 5 µL reaction; Figure 1A
Sequence of BMPR1B kinase (O00238 14-502): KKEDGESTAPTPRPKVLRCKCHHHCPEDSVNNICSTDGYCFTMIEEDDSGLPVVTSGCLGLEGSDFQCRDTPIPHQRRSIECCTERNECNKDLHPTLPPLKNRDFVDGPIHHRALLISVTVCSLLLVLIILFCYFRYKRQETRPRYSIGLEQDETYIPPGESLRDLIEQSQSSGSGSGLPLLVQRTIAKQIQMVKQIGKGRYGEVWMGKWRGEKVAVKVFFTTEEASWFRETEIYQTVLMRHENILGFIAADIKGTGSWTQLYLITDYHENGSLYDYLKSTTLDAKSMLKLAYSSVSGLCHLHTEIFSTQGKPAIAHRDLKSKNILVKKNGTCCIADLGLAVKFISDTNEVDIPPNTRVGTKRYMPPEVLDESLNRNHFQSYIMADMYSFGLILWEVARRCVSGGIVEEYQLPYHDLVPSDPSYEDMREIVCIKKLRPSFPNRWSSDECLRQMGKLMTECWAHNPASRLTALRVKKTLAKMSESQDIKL
Protocol: as §1

[7] = test system: H1 cells; test: Neural induction of H1 cells, marker gene mRNA by RNA-seq; type: cell-based, human; conditions: H1, increasing concentrations, day 7 and day 14; Figure 5
Protocol: as §2, §3, §4

[8] = test system: induced pluripotent stem cells (iPSCs); test: Neural induction of iPSCs, marker gene mRNA by RNA-seq; type: cell-based, human; conditions: iPSCs vs untreated control, day 7 and day 14, dose-dependent; Figure 6
Protocol: as §2, §3
6-well plates were coated with 50 µg/mL poly-L-lysine (SIGMA, Cat. No. P6407) and incubated at 37°C for at least 3 hours, followed by coating with 5 µg/mL laminin (SIGMA ALDRICH, Cat. No. 12020) and further incubation at 37°C for at least 3 hours. When pluripotent stem cells reached 70% confluency, they were digested with EDTA at 37°C for 5 minutes, and digestion was terminated using DMEM. Cells were washed, centrifuged, and reseeded in T25 flasks at 2 × 10^5 cells per flask. Induction was carried out using the aforementioned induction media: H9 cells were induced with induction medium A, while H1 cells and iPSCs were induced with induction medium B. The medium was refreshed daily until day 14.
Samples were collected on day 7 and day 14 of induction. RNA was processed using the VAHTS Universal V8 RNA-seq Library Prep Kit for Illumina (Vazyme, NR605-01/02), and sequencing was performed on an Illumina platform. […]

[9] = at the same concentration as the screen
[10] = different concentrations, up to 12.5 µM, threefold serial dilution, Figure 1B, C

SMILES: O=C1CN(C(=O)c2n[nH]c3c2CCC3)[C@H]2CCCC[C@@H]2N1 [II-1, (4aS,8aS)-4-(1,4,5,6-tetrahydrocyclopenta[c]pyrazole-3-carbonyl)octahydroquinoxalin-2(1H)-one]
- inhibition of kinase activity of TGFBR1 [1, 9]: did not inhibit
- inhibition of TGFBR1 kinase [1, 10]: no inhibition
- inhibition of kinase activity of BMPR2 [2, 9]: did not inhibit
- inhibition of BMPR2 kinase [2, 10]: no inhibition
- neural progenitor marker PAX6 expression [3]: corresponding increase
- pluripotency marker NANOG expression [3]: dose-dependent decrease
- phosphorylation of SMAD2/3 [4]: did not inhibit
- phosphorylation levels of SMAD1/5/8 [5]: significantly suppressed
- inhibitory activity against BMPR1B kinase [6]: significant inhibitory activity

SMILES: O=C1CN(C(=O)c2n[nH]c3ccccc23)[C@H]2CCCC[C@@H]2N1 [II-13, (4aS,8aS)-4-(1H-indazole-3-carbonyl)octahydroquinoxalin-2(1H)-one]
- glial progenitor marker gene Sox9 expression [7]: dose-dependent response
- neural marker gene MAP2 expression [7]: dose-dependent response
- neural differentiation marker VIM expression [8]: significantly increased expression
- neural progenitor marker Sox1 expression [8]: significantly increased expression
- neural progenitor marker Sox5 expression [8]: significantly increased expression

— EP4717691A1, “USE OF BMPR1B INHIBITOR IN INDUCED DEVELOPMENT, AND INDUCTION CULTURE MEDIUM” (Iregene Therapeutics Co., Ltd, priority 2023, dated 2024)
